Assay [1] has as its target T1, KRAS protein (His-tagged GDP-loaded G12S 1-169) (Homo sapiens, UniProt P01116, G12S).
T1 construct: His-tagged GDP-loaded G12S 1-169
The assay is described as follows: Covalent modification of KRAS protein, intact-protein LC-MS. The following applies: 24hrs at room temperature, KRAS protein ~2 µM. It is filed as binding. The gist of the method: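 His-tagged GDP-loaded KRAS 1-169 (~2 µM) incubated with compound 24 h at room temperature, then quenched with formic acid. Intact-protein LC-ESI-MS on C4 column; deconvoluted peak intensities of unmodified and adducted protein give percent covalent modification.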

Assay [2] relates to GP2D cells. The assay is described as follows: Cell proliferation assay (CellTiter-Glo), K-Ras G12D cells. It counts as cell-based. The following applies: read-out: Inhibition of GP2D Cells (IC50). The gist of the method:
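GP2D (K-Ras G12D) cells seeded in DMEM with 2 mM glutamine and 10% FBS, then dosed next day with a dilution series (e.g., 9-point 3-fold). Viability read by CellTiter-Glo luminescence after about 5 days. IC50 from four-parameter fit.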

Molecules are shown by their SMILES. Like-named read-outs stand apart in the source and are kept apart here. Bounds are passed on as bounds.

For the compound `N#Cc1c(N)sc2c(F)ccc(-c3c(Cl)cc4c(N5CCC6C5CCCN6C(=O)n5cncn5)nc(OC[C@@]56CCCN5C[C@H](F)C6)nc4c3F)c12` (stereo partly drawn) [Compound A152, 4-(4-(4-(1H-1,2,4-triazole-1-carbonyl)octahydro-1H-pyrrolo[3,2-b]pyridin-1-yl)-6-chloro-8-fluoro-2-(((2R,7aS)-2-fluorotetrahydro-1H-pyrrolizin-7a(5H)-yl)methoxy)quinazolin-7-yl)-2-amino-7-fluorobenzo[b]thiophene-3-carbonitrile], the “% G12S Modification at 24 hr.” value in assay [1] is recorded as “+++ (+++ indicates greater than 20% labelling)”. In assay [2] (GP2D cells (K-Ras G12D)), the IC50 was at most 1 µM.

As to `N#Cc1nccn1C(=O)N1C2CCC1CN(c1nc(OC[C@@]34CCCN3C[C@H](F)C4)nc3c(F)c(-c4ccc(F)c5sc(N)nc45)c(Cl)cc13)C2` [Compound A170, 1-(3-(7-(2-amino-7-fluorobenzo[d]thiazol-4-yl)-6-chloro-8-fluoro-2-(((2R,7aS)-2-fluorotetrahydro-1H-pyrrolizin-7a(5H)-yl)methoxy)quinazolin-4-yl)-3,8-diazabicyclo[3.2. 1]octane-8-carbonyl)-1H-imidazole-2-carbonitrile], in assay [1], the “% G12S Modification at 24 hr.” value was “++ (++ indicates between about 1%- 20% labelling)”. Further, the IC50 in assay [2] (GP2d) was at most 1 µM.

In the case of `N#Cc1c(N)sc2c(F)ccc(-c3c(Cl)cc4c(N5CCC6C5CN6C(=O)n5cncn5)nc(OC[C@@]56CCCN5C[C@H](F)C6)nc4c3F)c12` (stereo partly drawn) [Compound A183, 4-(4-(6-(1H-1,2,4-triazole-1-carbonyl)-2,6-diazabicyclo[3.2.0]heptan-2-yl)-6-chloro-8-fluoro-2-(((2R,7aS)-2-fluorotetrahydro-1H-pyrrolizin-7a(5H)-yl)methoxy)quinazolin-7-yl)-2-amino-7-fluorobenzo[b]thiophene-3-carbonitrile], the “% G12S Modification at 24 hr.” value in assay [1] is listed as “++ (++ indicates between about 1%- 20% labelling)”. Moreover, the IC50 in assay [2] (GP2D cells (K-Ras G12D)) was at most 1 µM.

For the compound `Cc1nc(C)n(C(=O)N2CC3(COCCN(c4nc(OC[C@@]56CCCN5C[C@H](F)C6)nc5c(F)c(-c6ccc(F)c7sc(N)c(C#N)c67)c(Cl)cc45)C3)C2)n1` [Compound A185, 2-amino-4-(6-chloro-4-(2-(3,5-dimethyl-1H-1,2,4-triazole-1-carbonyl)-6-oxa-2,9-diazaspiro[3.6]decan-9-yl)-8-fluoro-2-(((2R,7aS)-2-fluorotetrahydro-1H-pyrrolizin-7a(5H)-yl)methoxy)quinazolin-7-yl)-7-fluorobenzo[b]thiophene-3-carbonitrile], the “% G12S Modification at 24 hr.” value in assay [1] is reported as “++ (++ indicates between about 1%- 20% labelling)”. Besides, in assay [2] (GP2D cells (K-Ras G12D)), the IC50 lay in the range of 1 to 10 µM.

On to `Nc1nc2c(-c3c(Cl)cc4c(N5CCCN(C(=O)n6cncn6)CC5)nc(OC[C@@]56CCCN5C[C@H](F)C6)nc4c3F)ccc(F)c2s1` [Compound A191, (4-(7-(2-amino-7-fluorobenzo[d]thiazol-4-yl)-6-chloro-8-fluoro-2-(((2R,7aS)-2-fluorotetrahydro-1H-pyrrolizin-7a(5H)-yl)methoxy)quinazolin-4-yl)-1,4-diazepan-1-yl)(1H-1,2,4-triazol-1-yl)methanone], for which the “% G12S Modification at 24 hr.” value in assay [1] was “+++ (+++ indicates greater than 20% labelling)”. The IC50 in assay [2] (GP2D cells (K-Ras G12D)) lay within 1 to 10 µM.

`N#Cc1c(N)sc2c(F)ccc(-c3c(Cl)cc4c(N5CCOC6(CN(C(=O)n7ccnn7)C6)C5)nc(OC[C@@]56CCCN5C[C@H](F)C6)nc4c3F)c12` [Compound A195, 4-(4-(2-(1H-1,2,3-triazole-1-carbonyl)-5-oxa-2,8-diazaspiro[3.5]nonan-8-yl)-6-chloro-8-fluoro-2-(((2R,7aS)-2-fluorotetrahydro-1H-pyrrolizin-7a(5H)-yl)methoxy)quinazolin-7-yl)-2-amino-7-fluorobenzo[b]thiophene-3-carbonitrile]: the “% G12S Modification at 24 hr.” value in assay [1] is listed as “+++ (+++ indicates greater than 20% labelling)”. For the same compound, the IC50 in assay [2] (GP2D cells (K-Ras G12D)) lay within 1 to 10 µM.

As to `N#Cc1c(N)sc2c(F)ccc(-c3c(Cl)cc4c(N5CCOC6CN(C(=O)n7cncn7)CC65)nc(OC[C@@]56CCCN5C[C@H](F)C6)nc4c3F)c12` (stereo partly drawn) [Compound A218, 4-(4-(6-(1H-1,2,4-triazole-1-carbonyl)hexahydropyrrolo [3,4-b][1,4]oxazin-4(4aH)-yl)-6-chloro-8-fluoro-2-(((2R,7aS)-2-fluorotetrahydro-1H-pyrrolizin-7a(5H)-yl)methoxy)quinazolin-7-yl)-2-amino-7-fluorobenzo[b]thiophene-3-carbonitrile], in assay [1], the “% G12S Modification at 24 hr.” value was “+++ (+++ indicates greater than 20% labelling)”. Also, in assay [2] (GP2D cells (K-Ras G12D)), the IC50 was in the range of 1 to 10 µM.

With `N#Cc1ccn(C(=O)N2C3CCC2CN(c2nc(OC[C@@]45CCCN4C[C@H](F)C5)nc4c(F)c(-c5ccc(F)c6sc(N)c(C#N)c56)c(Cl)cc24)C3)n1` [Compound A224, 1-(3-(7-(2-amino-3-cyano-7-fluorobenzo[b]thiophen-4-yl)-6-chloro-8-fluoro-2-(((2R,7aS)-2-fluorotetrahydro-1H-pyrrolizin-7a(5H)-yl)methoxy)quinazolin-4-yl)-3,8-diazabicyclo[3.2. 1]octane-8-carbonyl)-1H-pyrazole-3-carbonitrile], the “% G12S Modification at 24 hr.” value in assay [1] is reported as “++ (++ indicates between about 1%- 20% labelling)”. The IC50 in assay [2] (GP2D cells (K-Ras G12D)) is at most 1 µM.

On to `CN(C)C1CN(c2nc(N3CCOC4(CN(C(=O)n5cncn5)C4)C3)c3cc(Cl)c(-c4ccc(F)c5sc(N)c(C#N)c45)c(F)c3n2)C1` [Compound A256, 4-(4-(2-(1H-1,2,4-triazole-1-carbonyl)-5-oxa-2,8-diazaspiro[3.5]nonan-8-yl)-6-chloro-2-(3-(dimethylamino)azetidin-1-yl)-8-fluoroquinazolin-7-yl)-2-amino-7-fluorobenzo[b]thiophene-3-carbonitrile], for which the “% G12S Modification at 24 hr.” value in assay [1] is on record as “+++ (+++ indicates greater than 20% labelling)”. Further, in assay [2] (GP2D cells (K-Ras G12D)), the IC50 is 1 to 10 µM.

As to `N#Cc1c(N)sc2c(F)ccc(-c3c(Cl)cc4c(N[C@H]5C[C@H]6CC[C@@H](C5)N6C(=O)n5cncn5)nc(OC[C@@]56CCCN5C[C@H](F)C6)nc4c3F)c12` [Compound A257, 4-(4-(((1R,3r,5S)-8-(1H-1,2,4-triazole-1-carbonyl)-8-azabicyclo[3.2.1]octan-3-yl)amino)-6-chloro-8-fluoro-2-(((2R,7aS)-2-fluorotetrahydro-1H-pyrrolizin-7 a(5H)-yl)methoxy)quinazolin-7-yl)-2-amino-7-fluorobenzo[b]thiophene-3-carbonitrile], the “% G12S Modification at 24 hr.” value in assay [1] is given as “++ (++ indicates between about 1%- 20% labelling)”. For the same compound, in assay [2] (GP2d), the IC50 lay within 1 to 10 µM.

With `N#Cc1c(N)sc2c(F)ccc(-c3c(Cl)cc4c(OC5CCCCN(C(=O)n6cncn6)C5)nc(OC[C@@]56CCCN5C[C@H](F)C6)nc4c3F)c12` (stereo partly drawn) [Compound A258, 4-(4-((1-(1H-1,2,4-triazole-1-carbonyl)azepan-3-yl)oxy)-6-chloro-8-fluoro-2-(((2R,7aS)-2-fluorotetrahydro-1H-pyrrolizin-7a(5H)-yl)methoxy)quinazolin-7-yl)-2-amino-7-fluorobenzo[b]thiophene-3-carbonitrile], the “% G12S Modification at 24 hr.” value in assay [1] is “+++ (+++ indicates greater than 20% labelling)”. The half-inhibitory concentration (IC50) in assay [2] (GP2D cells (K-Ras G12D)) is at most 1 µM.

(Values after patent EP4389751A1, “HETEROCYCLIC COMPOUNDS AND USES THEREOF” (Kumquat Biosciences Inc., priority 2021, dated 2024).)
